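Following 48 hours of exposure in 96-well plates, responses at five concentrations were used to interpolate endpoints linearly. GI50 marks 50% less growth. TGI is the concentration that stops growth completely.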
Key:
Test in all cases: NCI-60 cell line screen, 48 h
UACC-62 melanoma = system: UACC-62 melanoma
OVCAR-3 ovarian = system: OVCAR-3 ovarian
SF-539 CNS = system: SF-539 CNS
SK-OV-3 ovarian = system: SK-OV-3 ovarian
SNB-75 CNS = system: SNB-75 CNS
UACC-257 melanoma = system: UACC-257 melanoma
HT29 colon = system: HT29 colon
OVCAR-8 ovarian = system: OVCAR-8 ovarian
ACHN renal = system: ACHN renal
SNB-19 CNS = system: SNB-19 CNS
HOP-92 NSCLC = system: HOP-92 NSCLC
MDA-MB-435 = system: MDA-MB-435
NCI-H23 lung = system: NCI-H23 lung
M14 melanoma = system: M14 melanoma
MOLT-4 leukemia = system: MOLT-4 leukemia
SF-295 CNS = system: SF-295 CNS
OVCAR-4 ovarian = system: OVCAR-4 ovarian
OVCAR-5 ovarian = system: OVCAR-5 ovarian
SW-620 colon = system: SW-620 colon
HCC-2998 colon = system: HCC-2998 colon
K-562 leukemia = system: K-562 leukemia
BT-549 breast = system: BT-549 breast
HL-60(TB) leukemia = system: HL-60(TB) leukemia
SK-MEL-28 melanoma = system: SK-MEL-28 melanoma
NCI-H460 lung = system: NCI-H460 lung
HCT-116 colon = system: HCT-116 colon
SK-MEL-2 melanoma = system: SK-MEL-2 melanoma
DU-145 prostate = system: DU-145 prostate
CAKI-1 renal = system: CAKI-1 renal
SF-268 CNS = system: SF-268 CNS
U251 CNS = system: U251 CNS
CCRF-CEM leukemia = system: CCRF-CEM leukemia
TK-10 renal = system: TK-10 renal
IGROV1 ovarian = system: IGROV1 ovarian
NCI-H226 lung = system: NCI-H226 lung
SK-MEL-5 melanoma = system: SK-MEL-5 melanoma
COLO 205 colon = system: COLO 205 colon
786-0 renal = system: 786-0 renal
MCF7 breast = system: MCF7 breast
A498 renal = system: A498 renal
SR leukemia = system: SR leukemia
HS 578T breast = system: HS 578T breast
MDA-MB-231 breast = system: MDA-MB-231 breast
NCI/ADR-RES ovarian = system: NCI/ADR-RES ovarian
NCI-H522 lung = system: NCI-H522 lung
SN12C renal = system: SN12C renal
HCT-15 colon = system: HCT-15 colon
KM12 colon = system: KM12 colon
MALME-3M melanoma = system: MALME-3M melanoma
EKVX NSCLC = system: EKVX NSCLC
PC-3 prostate = system: PC-3 prostate
A549 NSCLC = system: A549 NSCLC
T-47D breast = system: T-47D breast
UO-31 renal = system: UO-31 renal
HOP-62 NSCLC = system: HOP-62 NSCLC
LOX IMVI melanoma = system: LOX IMVI melanoma

C#C[C@]1(O)CC[C@H]2[C@@H]3CC=C4c5sc(-c6ccc7c(c6)OCO7)nc5CC[C@]4(C)[C@H]3CC[C@@]21C
GI50 (UACC-62 melanoma): 2.24 µM | TGI (UACC-62 melanoma): 5.19 µM | GI50 (OVCAR-3 ovarian): 3 µM | TGI (OVCAR-3 ovarian): 11.9 µM | GI50 (SF-539 CNS): 0.428 µM | TGI (SF-539 CNS): 1.96 µM | GI50 (SK-OV-3 ovarian): 4.83 µM | TGI (SK-OV-3 ovarian): 26.6 µM | GI50 (SNB-75 CNS): 1.73 µM | TGI (SNB-75 CNS): 8.25 µM | GI50 (UACC-257 melanoma): 2.43 µM | TGI (UACC-257 melanoma): 6.7 µM | GI50 (HT29 colon): 2.32 µM | TGI (HT29 colon): 7.65 µM | GI50 (OVCAR-8 ovarian): 3.43 µM | TGI (OVCAR-8 ovarian): 86.3 µM | GI50 (ACHN renal): 2.11 µM | TGI (ACHN renal): 5.57 µM | GI50 (SNB-19 CNS): 2.59 µM | TGI (SNB-19 CNS): 13.8 µM | GI50 (HOP-92 NSCLC): 8.39 µM | TGI (HOP-92 NSCLC): 29.8 µM | GI50 (MDA-MB-435): 1.97 µM | TGI (MDA-MB-435): 4.17 µM | GI50 (NCI-H23 lung): 2.13 µM | TGI (NCI-H23 lung): 5.29 µM | GI50 (M14 melanoma): 1.73 µM | TGI (M14 melanoma): 5.34 µM | GI50 (MOLT-4 leukemia): 2.8 µM | TGI (MOLT-4 leukemia): > 100 µM | GI50 (SF-295 CNS): 0.52 µM | TGI (SF-295 CNS): 2.56 µM | GI50 (OVCAR-4 ovarian): 3.33 µM | TGI (OVCAR-4 ovarian): 9.95 µM | GI50 (OVCAR-5 ovarian): 2.08 µM | TGI (OVCAR-5 ovarian): 5.29 µM | GI50 (SW-620 colon): 2.07 µM | TGI (SW-620 colon): 5.28 µM | GI50 (HCC-2998 colon): 5.56 µM | TGI (HCC-2998 colon): > 100 µM | GI50 (K-562 leukemia): 3.53 µM | TGI (K-562 leukemia): > 100 µM | GI50 (BT-549 breast): 1.99 µM | TGI (BT-549 breast): 5.67 µM | GI50 (HL-60(TB) leukemia): 3.8 µM | TGI (HL-60(TB) leukemia): > 100 µM | GI50 (SK-MEL-28 melanoma): 1.29 µM | TGI (SK-MEL-28 melanoma): 2.85 µM | GI50 (NCI-H460 lung): 2.38 µM | TGI (NCI-H460 lung): 5.64 µM | GI50 (HCT-116 colon): 1.84 µM | TGI (HCT-116 colon): 5.3 µM | GI50 (SK-MEL-2 melanoma): 2.14 µM | TGI (SK-MEL-2 melanoma): 6.37 µM | GI50 (DU-145 prostate): 3.45 µM | TGI (DU-145 prostate): 70.5 µM | GI50 (CAKI-1 renal): 2.63 µM | TGI (CAKI-1 renal): 8.37 µM | GI50 (SF-268 CNS): 4.97 µM | TGI (SF-268 CNS): 27.7 µM | GI50 (U251 CNS): 1.41 µM | TGI (U251 CNS): 4.53 µM | GI50 (CCRF-CEM leukemia): 2.8 µM | TGI (CCRF-CEM leukemia): > 100 µM | GI50 (TK-10 renal): 3.39 µM | TGI (TK-10 renal): 10.1 µM | GI50 (IGROV1 ovarian): 2.98 µM | TGI (IGROV1 ovarian): 8.3 µM | GI50 (NCI-H226 lung): 3.31 µM | TGI (NCI-H226 lung): 12.6 µM | GI50 (SK-MEL-5 melanoma): 2.64 µM | TGI (SK-MEL-5 melanoma): 6.99 µM | GI50 (COLO 205 colon): 3.87 µM | TGI (COLO 205 colon): 27.8 µM | GI50 (786-0 renal): 0.841 µM | TGI (786-0 renal): 3.78 µM | GI50 (MCF7 breast): 1.87 µM | TGI (MCF7 breast): 4.95 µM | GI50 (A498 renal): 1.63 µM | TGI (A498 renal): 7.49 µM | GI50 (SR leukemia): 2.64 µM | TGI (SR leukemia): > 100 µM | GI50 (HS 578T breast): 0.501 µM | TGI (HS 578T breast): 3.98 µM | GI50 (MDA-MB-231 breast): 3.45 µM | TGI (MDA-MB-231 breast): 40.8 µM | GI50 (NCI/ADR-RES ovarian): 3.34 µM | TGI (NCI/ADR-RES ovarian): 17 µM | GI50 (NCI-H522 lung): 2.38 µM | TGI (NCI-H522 lung): 6.17 µM | GI50 (SN12C renal): 2.88 µM | TGI (SN12C renal): 9.83 µM | GI50 (HCT-15 colon): 1.93 µM | TGI (HCT-15 colon): 6.28 µM | GI50 (KM12 colon): 3.46 µM | TGI (KM12 colon): 31.1 µM | GI50 (MALME-3M melanoma): 2.69 µM | TGI (MALME-3M melanoma): 8.62 µM | GI50 (EKVX NSCLC): 3.55 µM | TGI (EKVX NSCLC): 73.5 µM | GI50 (PC-3 prostate): 1.68 µM | TGI (PC-3 prostate): 4.46 µM | GI50 (A549 NSCLC): 2.76 µM | TGI (A549 NSCLC): 8.48 µM | GI50 (T-47D breast): 3.62 µM | TGI (T-47D breast): 27.6 µM | GI50 (UO-31 renal): 2.03 µM | TGI (UO-31 renal): 5.47 µM | GI50 (HOP-62 NSCLC): 2.53 µM | TGI (HOP-62 NSCLC): 7.94 µM | GI50 (LOX IMVI melanoma): 1.73 µM | TGI (LOX IMVI melanoma): 4.3 µM
